The source of these data is patent US7714017B2, “Carboxylic acid peri-substituted bicyclics for occlusive artery disease” (Decode Genetics, EHF, priority 2004, dated 2010).

As a reminder, the IC50 is the midpoint of a concentration-inhibition curve.

In the assay the target is T1, prostanoid EP3 receptors (Homo sapiens, UniProt P43115).
T1 sequence (P43115 1-390): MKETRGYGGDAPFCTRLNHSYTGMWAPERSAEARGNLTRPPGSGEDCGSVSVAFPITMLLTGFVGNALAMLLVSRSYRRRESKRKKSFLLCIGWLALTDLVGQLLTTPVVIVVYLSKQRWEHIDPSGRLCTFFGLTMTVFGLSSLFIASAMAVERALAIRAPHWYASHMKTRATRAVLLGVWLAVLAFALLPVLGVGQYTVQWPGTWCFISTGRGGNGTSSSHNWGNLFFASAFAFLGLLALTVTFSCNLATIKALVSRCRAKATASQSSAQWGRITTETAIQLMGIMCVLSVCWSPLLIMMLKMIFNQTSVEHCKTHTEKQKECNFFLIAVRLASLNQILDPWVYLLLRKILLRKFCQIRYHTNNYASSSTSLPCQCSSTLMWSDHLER
The assay can be described thus: binding on prostanoid EP3 receptors (method of Abramovitz et al.). The following applies: Chart 1, read-out: Activity (EP3 receptor binding IC50 class). The method, then:
The compounds of the invention were assayed for their binding on prostanoid EP3 receptors according to the method of Abramovitz et al. [Bioch. Biophys. Acta, 1473, 285-293 (2000)]. […] Compounds with IC50<1 μM are shown as +++; compounds with IC50 1-10 μM are shown as ++; and compounds with IC50>10 μM are shown as +.
The compounds of the invention were assayed for their binding on prostanoid EP3 receptors according to the method of Abramovitz et al. [Bioch. Biophys. Acta. 1473, 285-293 (2000)]. […] Compounds with IC50<1 μM are shown as +++; compounds with IC50 1-10 μM are shown as ++; and compounds with IC50>10 μM are shown as +.
For the compound `O=C(O)CCc1csc2ncc(C=Cc3ccc4ccccc4c3)n12` (mixture of isomers) [Compound A23, 3-[5-((E)-2-Naphthalen-2-yl-vinyl)-imidazo[2,1-b]thiazol-3-yl]-propionic acid], the IC50 was 1 to 10 µM.

For `O=C(O)/C=C/c1cnn2ccn(Cc3ccc4ccccc4c3)c12` [Compound A02, (E)-3-(1-Naphthalen-2-ylmethyl-1H-imidazo[1,2-b]pyrazol-7-yl)-acrylic acid], the IC50 was in the range of 1 to 10 µM.

Regarding `O=C(O)COc1cccc2oc(=O)n(Cc3ccc4ccccc4c3)c12` [Compound A04, (3-Naphthalen-2-ylmethyl-2-oxo-2,3-dihydro-benzooxazol-4-yloxy)-acetic acid], the IC50 is 1 to 10 µM.

With `O=C(O)COc1cccc2oc(=O)n(Cc3ccc4c(c3)OCO4)c12` [Compound A05, (3-Benzo[1,3]dioxol-5-ylmethyl-2-oxo-2,3-dihydro-benzooxazol-4-yloxy)-acetic acid], the IC50 lay within 1 to 10 µM.

Take `O=C(O)COc1cccc2oc(=O)n(Cc3ccc(Cl)c(Cl)c3)c12` [Compound A06, [3-(3,4-Dichloro-benzyl)-2-oxo-2,3-dihydro-benzooxazol-4-yloxy]-acetic acid]: the IC50 lay within 1 to 10 µM.

With `O=C(O)COc1cccc2oc(=O)n(Cc3ccc(Cl)cc3Cl)c12` [Compound A07], the IC50 fell in the range of 1 to 10 µM.

As for `Cc1ccc(C)c(Cn2c(=O)oc3cccc(OCC(=O)O)c32)c1` [Compound A08, [3-(2,5-Dimethyl-benzyl)-2-oxo-2,3-dihydro-benzooxazol-4-yloxy]-acetic acid], the IC50 was in the range of 1 to 10 µM.

As for `Cc1cn(Cc2ccc(Cl)cc2Cl)c2c(/C=C/C(=O)O)cccc12` [Compound A09, (E)-3-[1-(2,4-Dichloro-benzyl)-3-methyl-1H-indol-7-yl]-acrylic acid], the IC50 is less than 1 µM.

Take `O=C(O)/C=C/c1cccc2c(CO)cn(Cc3ccc(Cl)cc3Cl)c12` [Compound A10, (E)-3-[1-(2,4-Dichloro-benzyl)-3-hydroxymethyl-1H-indol-7-yl]-acrylic acid]: the IC50 was in the range of 1 to 10 µM.

With `O=Cc1cn(Cc2ccc(Cl)cc2Cl)c2c(/C=C/C(=O)O)cccc12` [Compound A11, (E)-3-[1-(2,4-Dichloro-benzyl)-3-formyl-1H-indol-7-yl]-acrylic acid], the IC50 was less than 1 µM.

With `COCc1cn(Cc2ccc(Cl)cc2Cl)c2c(/C=C/C(=O)O)cccc12` [Compound A12, (E)-3-[1-(2,4-Dichloro-benzyl)-3-methoxymethyl-1H-indol-7-yl]-acrylic acid], the 50% inhibitory concentration (IC50) was less than 1 µM.

On to `CC(=O)c1cn(Cc2ccc(Cl)cc2Cl)c2c(/C=C/C(=O)O)cccc12` [Compound A13, (E)-3-[3-Acetyl-1-(2,4-dichloro-benzyl)-1H-indol-7-yl]-acrylic acid], for which the IC50 is 1 to 10 µM.

For `CC(C)c1cn(Cc2ccc(Cl)cc2Cl)c2c(CCC(=O)O)cccc12` [Compound A14], the IC50 is 1 to 10 µM.

On to `O=C(O)C=Cc1cccc2c1N(Cc1ccc3ccccc3c1)C(=O)C2(O)C(F)(F)F` (stereo not shown) [Compound A15, 3-(3-Hydroxy-1-naphthalen-2-ylmethyl-2-oxo-3-trifluoromethyl-2,3-dihydro-1H-indol-7-yl)-acrylic acid], for which the IC50 is 1 to 10 µM.

As for `O=C(O)C=Cc1cccc2c1N(Cc1ccc(Cl)cc1Cl)C(=O)C21OCCO1` [Compound A16], the concentration for half-maximal inhibition (IC50) is less than 1 µM.

Regarding `O=C(O)/C=C/c1cccc2c1N(Cc1ccc(Cl)cc1Cl)C(=O)C2=O` [Compound A17, (E)-3-[1-(2,4-Dichloro-benzyl)-2,3-dioxo-2,3-dihydro-1H-indol-7-yl]-acrylic acid], the IC50 was 1 to 10 µM.

Regarding `CC1(C)C(=O)N(Cc2ccc(Cl)cc2Cl)c2c(/C=C/C(=O)O)cccc21` [Compound A19, (E)-3-[1-(2,4-Dichloro-benzyl)-3,3-dimethyl-2-oxo-2,3-dihydro-1H-indol-7-yl]-acrylic acid], the IC50 fell in the range of 1 to 10 µM.

`O=C(O)/C=C/c1cccc2c1N(Cc1ccc(Cl)cc1Cl)C(=O)C2(F)F` [Compound A20, (E)-3-[1-(2,4-Dichloro-benzyl)-3,3-difluoro-2-oxo-2,3-dihydro-1H-indol-7-yl]-acrylic acid]: the IC50 was in the range of 1 to 10 µM.

Regarding `O=C(O)COc1cccc2ncn(Cc3ccc(Cl)cc3Cl)c12` [Compound A21, [3-(2,4-Dichloro-benzyl)-3H-benzoimidazol-4-yloxy]-acetic acid], the IC50 is less than 1 µM.

Consider `O=C(O)COc1cccc2ncn(Cc3ccc4ccccc4c3)c12` [Compound A22, (3-Naphthalen-2-ylmethyl-3H-benzoimidazol-4-yloxy)-acetic acid], for which the IC50 is greater than 10 µM.

On to `CC12CCCC(/C=C/C(=O)O)=C1N(Cc1ccc3ccccc3c1)C(=O)C2` (stereo not shown) [Compound A24, (E)-3-(3a-Methyl-1-naphthalen-2-ylmethyl-2-oxo-2,3,3a,4,5,6-hexahydro-1H-indol-7-yl)-acrylic acid], for which the IC50 lay within 1 to 10 µM.

`Cn1nc(NCC(=O)O)c2c(Oc3ccc4ccccc4c3)cccc21` [Compound A25, [1-Methyl-4-(naphthalen-2-yloxy)-1H-indazol-3-ylamino]-acetic acid]: the IC50 is less than 1 µM.

`Cn1nc(NC(=O)c2ccc3ccccc3c2)c2c(/C=C/C(=O)O)cccc21` [Compound A26, (E)-3-{1-Methyl-3-[(naphthalene-2-carbonyl)-amino]-1H-indazol-4-yl}-acrylic acid]: the IC50 was in the range of 1 to 10 µM.

As for `CC12CCCC(/C=C/C(=O)O)=C1N(Cc1cccc(F)c1)C(=O)C2` (stereo not shown) [Compound A27, (E)-3-[1-(3-Fluoro-benzyl)-3a-methyl-2-oxo-2,3,3a,4,5,6-hexahydro-1H-indol-7-yl]-acrylic acid], the IC50 is less than 1 µM.

In the case of `CC12CCCC(/C=C/C(=O)O)=C1N(Cc1ccc(F)cc1)C(=O)C2` (stereo not shown) [Compound A28, (E)-3-[1-(4-Fluoro-benzyl)-3a-methyl-2-oxo-2,3,3a,4,5,6-hexahydro-1H-indol-7-yl]-acrylic acid], the IC50 was less than 1 µM.

In the case of `COc1cccc(CN2C(=O)CC3(C)CCCC(/C=C/C(=O)O)=C23)c1` (stereo not shown) [Compound A29, (E)-3-[1-(3-Methoxy-benzyl)-3a-methyl-2-oxo-2,3,3a,4,5,6-hexahydro-1H-indol-7-yl]-acrylic acid], the IC50 was less than 1 µM.

Turning to `CC12CCCC(/C=C/C(=O)O)=C1N(Cc1ccc(F)c(F)c1)C(=O)C2` (stereo not shown) [Compound A30, (E)-3-[1-(3,4-Difluoro-benzyl)-3a-methyl-2-oxo-2,3,3a,4,5,6-hexahydro-1H-indol-7-yl]-acrylic acid], the IC50 was 1 to 10 µM.

For the compound `Cc1cn(Cc2ccc(Cl)cc2Cl)c2c(/C=C/C(=O)O)cc(F)cc12` [Compound A31, (E)-3-[1-(2,4-dichloro-benzyl)-5-fluoro-3-methyl-1H-indol-7-yl]-acrylic acid], the IC50 is less than 1 µM.

Take `CC12CCCC(/C=C/C(=O)O)=C1N(Cc1ccc(Cl)cc1Cl)C(=O)C2` (stereo not shown) [Compound A32, (E)-3-[1-(2,4-Dichloro-benzyl)-3a-methyl-2-oxo-2,3,3a,4,5,6-hexahydro-1H-indol-7-yl]-acrylic acid]: the IC50 was less than 1 µM.

Turning to `CN1C(=O)C(C(=O)Nc2ccc(Cl)cc2Cl)c2c(/C=C/C(=O)O)cccc21` (stereo not shown) [Compound A33, (E)-3-[3-(2,4-Dichloro-phenylcarbamoyl)-1-methyl-2-oxo-2,3-dihydro-1H-indol-4-yl]-acrylic acid], the half-maximal inhibitory concentration (IC50) was in the range of 1 to 10 µM.

As for `CC12CCCC(/C=C/C(=O)O)=C1N(Cc1ccc(Cl)c(Cl)c1)C(=O)C2` (stereo not shown) [Compound A34, (E)-3-[1-(3,4-Dichloro-benzyl)-3a-methyl-2-oxo-2,3,3a,4,5,6-hexahydro-1H-indol-7-yl]-acrylic acid], the IC50 was less than 1 µM.

On to `CC12CCCC(/C=C/C(=O)O)=C1N(Cc1cccc(Cl)c1)C(=O)C2` (stereo not shown) [Compound A35, (E)-3-[1-(3-Chloro-benzyl)-3a-methyl-2-oxo-2,3,3a,4,5,6-hexahydro-1H-indol-7-yl]-acrylic acid], for which the IC50 lay within 1 to 10 µM.

With `CC12CCCC(/C=C/C(=O)O)=C1N(Cc1cccc(Cl)c1Cl)C(=O)C2` (stereo not shown) [Compound A36, (E)-3-[1-(2,3-Dichloro-benzyl)-3a-methyl-2-oxo-2,3,3a,4,5,6-hexahydro-1H-indol-7-yl]-acrylic acid], the IC50 lay within 1 to 10 µM.

As for `Cn1cc(/C=C/C(=O)O)c2c(Oc3ccc(F)cc3F)cccc21` [Compound A37, (E)-3-[4-(2,4-Difluoro-phenoxy)-1-methyl-1H-indol-3-yl]-acrylic acid], the IC50 is less than 1 µM.

As for `Cn1cc(/C=C/C(=O)O)c2c(Oc3ccc(F)c(Cl)c3)cccc21` [Compound A38, (E)-3-[4-(3-Chloro-4-fluoro-phenoxy)-1-methyl-1H-indol-3-yl]-acrylic acid], the IC50 lay in the range of 1 to 10 µM.

As to `Cn1cc(/C=C/C(=O)O)c2c(Oc3ccc(Cl)c(Cl)c3)cccc21` [Compound A39, (E)-3-[4-(3,4-Dichloro-phenoxy)-1-methyl-1H-indol-3-yl]-acrylic acid], the IC50 was 1 to 10 µM.

As to `Cn1cc(/C=C/C(=O)O)c2c(Oc3ccc(Cl)cc3Cl)cccc21` [Compound A40, (E)-3-[4-(2,4-Dichloro-phenoxy)-1-methyl-1H-indol-3-yl]-acrylic acid], the IC50 is less than 1 µM.
